Measurements published in patent EP2752414A1, “Crystalline form of apixaban” (Sandoz AG, priority 2013, dated 2014).
Values after ≈ are worked out from the molar mass of the structure shown.

Assays:
[1] = Equilibrium solubility, shake flask method (European Pharmacopeia); format: physicochemical; conditions: for Equilibrium solubility / solubility thermodynamic at 24 h: shaking at 400 rpm for 24 hours; for solubility thermodynamic at 24 h: aqueous buffer, 37 °C, thermodynamic from solid
Procedure: As used herein, the term "equilibrium solubility" refers to the maximum solubility of apixaban in various aqueous media of buffers of pH 1.2, 4.5 and 6.8 at 37 °C after 24 hours. The shaking is carried out at 400 rpm.
(§1) Equilibrium solubility of crystalline polymorphic Form A of apixaban and references apixaban Form N-1 was performed in various aqueous media of buffers of pH 1.2, 4.5 and 6.8 at 37°C. The solubility was measured using "shake flask" method described in European Pharmacopeia. The shaking was carried out at 400 RMP for 24 hours. Table 2: Equilibrium solubility of crystalline polymorphic Form A of apixaban and reference apixaban Form N-1 in various aqueous media of buffers.
as §1, with “rmp” for “RMP”

[2] = Physical stability of the crystalline form on storage at room atmosphere conditions; format: physicochemical; conditions: after 8 months stored at room atmosphere conditions
Text: For a pharmaceutical use a solubility of the form which active pharmaceutical ingredient forms is a criterion of exceptional importance under certain circumstances depending on the choice of formulation or the choice of manufacturing process. For drugs which are to be taken orally it is, in general, very important that active pharmaceutical ingredients are sufficiently soluble and bioavailable. Apixaban is such a drug, i.e. characterized by a low solubility in aqueous media. Unexpectedly, improved solubility of crystalline polymorph Form A of apixaban contributes to sufficient bioavailability of apixaban containing drugs. At the same time, a high physical stability of crystalline Form A is preserved.

Compound	Equilibrium solubility ([1]; aqueous buffer pH 6.8, 37°C) [µg/mL]	solubility thermodynamic at 24 h ([1]; pH 1.2, simulated gastric fluid, aqueous buffer pH 1.2, 37°C) [µg/mL]	solubility thermodynamic at 24 h ([1]; pH 4.5, aqueous buffer, aqueous buffer pH 4.5, 37°C) [µg/mL]	physical stability (crystalline structure) [2]	Equilibrium solubility ([1]; aqueous buffer pH 1.2, 37°C) [µg/mL]	Equilibrium solubility ([1]; aqueous buffer pH 4.5, 37°C) [µg/mL]	comparison of equilibrium solubility with reference polymorph Form N-1 ([1]; aqueous buffers pH 1.2, 4.5 and 6.8, 37°C (Table 2))
COc1ccc(-n2nc(C(N)=O)c3c2C(=O)N(c2ccc(N4CCCCC4=O)cc2)CC3)cc1 [Form N-1, 1-(4-methoxyphenyl)-7-oxo-6-(4-(2-oxopiperidin-1-yl)phenyl)-4,5,6,7-tetrahydro-1H-pyrazolo[3,4-c]pyridine-3-carboxamide, reference compound]	30	44 (≈ 95.8 µM)	53 (≈ 115 µM)	–	–	–	–
COc1ccc(-n2nc(C(N)=O)c3c2C(=O)N(c2ccc(N4CCCCC4=O)cc2)CC3)cc1 [Form A, 1-(4-methoxyphenyl)-7-oxo-6-(4-(2-oxopiperidin-1-yl)phenyl)-4,5,6,7-tetrahydro-1H-pyrazolo[3,4-c]pyridine-3-carboxamide]	72	–	–	the crystalline structure remains unchanged	58	74	higher solubility
